Experimental data: patent publication US20210330611A1, “THERAPY FOR NEUROLOGICAL DISEASES/DISORDERS” (priority 2020, published 2021)
Where two headings read alike, the source gives them in different places.

Key:
in vitro [1] = conditions: rat
MOG35-55 EAE = test: Immunohistochemistry of spinal cord lesions in MOG35-55 EAE mice; format: in vivo, mouse
adoptive transfer EAE = test: Adoptive transfer EAE induced by PLP139-151-specific T cells, clinical scores; format: in vivo, mouse; conditions: prophylactic, 5 mg/kg daily from day 0, FIG. 7d
GGT = biological target: T1, GGT (Mus musculus, UniProt Q60928); test: GGT activity assay in fibrin-stimulated BMDMs (enzymatic kit, ProteoGREEN-gGlu probe); format: cell-based; conditions: FIG. 6c, FIG. 13A, B
T1 construct: GGT activity in BMDMs left unstimulated or stimulated with fibrin after acivicin or vehicle control treatment; endogenous in cells; host or cells: mouse bone marrow-derived macrophages (BMDMs), fibrin-stimulated
T1 sequence (Q60928 380-568): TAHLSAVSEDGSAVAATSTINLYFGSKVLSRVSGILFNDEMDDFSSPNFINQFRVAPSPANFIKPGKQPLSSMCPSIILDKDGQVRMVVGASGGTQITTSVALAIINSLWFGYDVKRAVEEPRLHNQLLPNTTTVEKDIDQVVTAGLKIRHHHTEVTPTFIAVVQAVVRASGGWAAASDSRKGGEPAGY
T1 sequence (Q60928 1-379): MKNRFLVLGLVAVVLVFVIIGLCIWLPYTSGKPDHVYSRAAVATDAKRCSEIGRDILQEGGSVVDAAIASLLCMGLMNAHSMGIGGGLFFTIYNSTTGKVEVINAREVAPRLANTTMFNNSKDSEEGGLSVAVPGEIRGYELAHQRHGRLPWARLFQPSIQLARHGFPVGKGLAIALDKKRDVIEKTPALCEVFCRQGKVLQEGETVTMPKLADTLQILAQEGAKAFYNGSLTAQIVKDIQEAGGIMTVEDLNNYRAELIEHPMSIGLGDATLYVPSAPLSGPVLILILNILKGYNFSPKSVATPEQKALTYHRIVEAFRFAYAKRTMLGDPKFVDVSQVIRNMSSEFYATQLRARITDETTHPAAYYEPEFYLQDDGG
Description: GGT activity assay. GGT activity was measured using the MaxDiscovery gamma-Glutamyl Transferase (GGT) Enzymatic Assay Kit (Bioo Scientific) according to the manufacturer's protocol. […]. For in vivo GGT activity assay, spinal cord tissues from the onset of MOG35-55 EAE or LPS-injected substantia nigra area at 12 h were prepared. Tissues were homogenized in 0.1 M Tris-HCl and centrifuged at 13,000 g for 30 min at 4° C. The supernatant was collected and subsequently assessed for GGT activity. The absorbance at 405 nm was detected with a SpectraMax M5 microplate reader (Molecular Devices) with SoftMax Pro 5.2 software (Phoenix Technologies Ltd.). The GGT activity in IU/1 was calculated following the manufacturer's protocol by multiplying the average increase in absorbance at 405 nm over 10 min GGT activity was also measured using a fluorescent probe, ProteoGREEN-gGlu (Goryo Chemical, Hokkaido, Japan), according to the manufacturer's protocol. Cultured BMDMs were plated on 96-well, black μ-clear-bottom microtiter plates (Greiner Bio-One) pre-coated with 25 μg/ml fibrin. […] The fluorescence intensity (excitation/emission filter pairs of 488 nm/520 nm) was measured using a SpectraMax M5 microplate reader (Molecular Devices) with SoftMax Pro 5.2 software (Phoenix Technologies).

CD4+ T cells = test: Flow cytometry of splenocyte T cells from MOG35-55 EAE mice; format: in vivo, mouse; conditions: splenocytes, 10 days treatment, FIG. 14C-F
Description: Flow cytometry. Cells were incubated with anti-mouse CD16/CD32 antibody (2.4G2) diluted in PBS with 2% FBS, and 2 mM EDTA at 4° C. for 15 min to block Fc receptor binding. Cells were stained with fluorescent-conjugated antibodies: CD3 (17A2), CD4 (GK1.5), CD8 (53-6.7), CD62L (MEL-14), CD44 (1M7), CD25 (3C7), CD11b (M1/70), CD45 (30-F11), and MHC II (M5/114.15.2). For surface labeling of GGT1, unconjugated mouse monoclonal anti-GGT1 (1:100; ab55138, Abcam) was incubated with surface markers for 1 hr at 4° C. Then FITC conjugated species-specific secondary antibody (1:100) was added for 1 hr at 4° C. For intracellular staining of IFN-γ and IL-17A, T cells were stimulated for 4 hr with Cell Activation Cocktail (BioLegend). Cells were then fixed with Cytofix/Cytoperm solution (BD Bioscience) and stained with antibodies to IL-17A (TC11-18H10.1), or IFN-γ (XMG1.2). Foxp3 (FJK-16S) staining was performed according to the manufacturer's protocol (eBioscience). Cells were analyzed by flow cytometry on an LSR II (BD Biosciences) with FlowJo software (Tree Star Inc.). Antibodies were purchased from BioLegend, BD Biosciences, or eBioscience.

intracellular GSH = format: cell-based, mouse
Description: Real-time imaging of glutathione. The real-time GSH dynamics in living BMDMs was determined with the fluorescent GSH probe, RealThiol RT-AM as described (37). Cells were plated on 2-well chamber slide (Nunc) pre-coated with 25 μg/ml fibrin. Cells were stimulated with fibrin with or without 5 μM acivicin or GGsTop. The GSH synthesis inhibitor, buthionine sulfoximine (BSO, Sigma-Aldrich) was used as positive control for reducing intracellular GSH levels at 100 μM. After 24 h incubation, cells were loaded with 1 μM RT-AM probe and were incubated for 5 min before imaging. The cells were kept at 37° C. during the entire experiment. […] For each independent experiment, laser power and detector settings were set using the control/untreated cells incubated with RT-AM alone as reference. All settings were kept constant throughout the experiment. […] The ratio calculated for each treatment was expressed as percentage from that of the untreated cells (control).

chronic NOD MOG35-55 EAE = test: Immunohistochemistry of spinal cord in chronic NOD MOG35-55 EAE; format: in vivo, mouse
neuronal viability = conditions: similar concentration range; cited from earlier work
in vitro [2] = conditions: rat, Cell Toxicity IC50 (uM) [cFib assay], cFib assay
[3] = test system: fibrin-induced microglia activation; test: Image-based assay of fibrin-induced microglia activation (HTS and dose response); format: cell-based, rat

N[C@H](C(=O)O)[C@@H]1CC(Cl)=NO1 [Acivicin, (2S)-2-amino-2-[(5S)-3-chloro-4,5-dihydro-1,2-oxazol-5-yl] acetic acid]
IC50 (in vitro [1]): > 20000 nM | demyelination (MBP) (MOG35-55 EAE; FIG. 7i): markedly reduced | neuronal damage (SMI-32) (MOG35-55 EAE; FIG. 7i): markedly reduced | microglia activation (CX3CR1+ cells) (MOG35-55 EAE; FIG. 7j): markedly reduced | monocyte/macrophage infiltration (CCR2+ cells) (MOG35-55 EAE; FIG. 7j): markedly reduced | 4-hydroxynonenal (4-HNE) immunostaining (MOG35-55 EAE; spinal cord, peak disease, FIG. 7f): markedly reduced | disease onset and severity (adoptive transfer EAE): delayed | fibrin-induced GGT activity in BMDMs (GGT): inhibited | IFN-γ-producing T cells (CD4+ T cells): selectively decreased | IL-17-producing T cells (CD4+ T cells): selectively decreased | fibrin-induced degradation of glutathione (RealThiol F405/F488) (intracellular GSH): inhibited | demyelination (MBP) (chronic NOD MOG35-55 EAE; chronic phase, FIG. 8c): reduced | NADPH oxidase subunit gp91-phox (chronic NOD MOG35-55 EAE; chronic phase, FIG. 8d): reduced | axonal damage (SMI-32) (chronic NOD MOG35-55 EAE; chronic phase, FIG. 8d): reduced | inducible nitric oxide synthase (iNOS) (chronic NOD MOG35-55 EAE; chronic phase, FIG. 8d): reduced | expression of GGT1 (chronic NOD MOG35-55 EAE; mouse, in vivo): reduced | neuronal viability (neuronal viability): does not affect | IC50 (in vitro [2]): > 20 µM | IC50 ([3]; Rattus norvegicus, Microglia, 48 h, Table 1, dose response 0.001-20 μM, triplicates, primary rat microglia, 48 h, read-out: Fibrin IC50): 2 µM | IC50 ([3]; Rattus norvegicus, Microglia, Table 7, read-out: fib_IC50): 0.57 µM | IC50 ([3]; Rattus norvegicus, Microglia, dose response, fibrin-induced microglia activation, read-out: Fibrin IC50): 2 µM | IC50 ([3]; Rattus norvegicus, Microglia, fibrin-induced microglia activation, dose response, read-out: Fibrin IC50 (uM) (Suppl. Table 7)): 2 µM | inhibition at 10 µM ([3]; Rattus norvegicus, Microglia, primary microglia HTS, fibrin stimulation, increased cell size (>800 μm^2) as marker of activation, read-out: Fibrin % inhibition): 90% | fibrin-induced microglial activation ([3]; dose-dependent, FIG. 6a): inhibited
